One data set concerns A549. Kind of data set: Compound was tested for cytotoxic activity against human lung carcinoma (A-549). It counts as functional. As to conditions: for EC50: Homo sapiens, A549, read-out: ED50 (the source's name).
A further data set has as its system HT-29. Kind of data set: Compound was tested for cytotoxic activity against human colon adenocarcinoma (HT-29). The format is functional. Particulars: for EC50: Homo sapiens, HT-29, read-out: ED50 (the source's name).
The subject of another data set is MCF7. The data set is described as follows: Compound was tested for cytotoxic activity against human breast carcinoma (MCF-7). It counts as functional. As to conditions: for EC50: Homo sapiens, MCF7, read-out: ED50 (the source's name).
Data set [1] in a line: (§1) Compound was tested for lethal concentration in Brine shrimp lethality test (BST). The format is organism-based. As to conditions: artemia, in vivo.
Another data set has as its system Artemia. The description is as §1. Particulars: in vivo. The format is organism-based.

≈ marks a conversion by molar mass, not a printed value.

Turning to `CCCCCCCCCCC(O)C(O)CCC(O)C1CCC(C2CCC(CCCCCCCC3CC(CC(C)=O)C(=O)O3)O2)O1` (stereo in doubt), the figures for the EC50 in the data set on A549, in the data set on HT-29 and in the data set with MCF7 were 0.0337 ng/mL (≈ 0.0527 nM), 229 ng/mL (≈ 358 nM) and 1.07 ng/mL (≈ 1.67 nM), respectively. The LC50 (commonly the concentration lethal to half of the exposed cells or organisms) in data set [1] stood at 137 ng/mL (≈ 214 nM).
On to `CCCCCCCCCCC(O)C(O)CCC(O)C1CCC(C2CCC(CCCCCCCC3CC(CC(C)=O)C(=O)O3)O2)O1` (trans isomer), for which the ED50 was 0.0337 ng/mL (≈ 0.0527 nM) in the data set on A549, 229 ng/mL (≈ 358 nM) with HT-29 and 1.07 ng/mL (≈ 1.67 nM) in the data set on MCF7. In the data set on Artemia, this molecule had an LC50 of 137 ng/mL (≈ 214 nM).
Turning to `COc1cccc2c1C(=O)c1c(O)c3c(c(O)c1C2=O)C[C@@](O)(C(=O)CO)C[C@@H]3O[C@H]1C[C@H](N)[C@H](O)[C@H](C)O1` [DOXORUBICIN], the EC50 in the data set on A549 stood at 0.153 ng/mL (≈ 0.281 nM); with HT-29, 0.558 ng/mL (≈ 1.03 nM); in the data set with MCF7 it was 13.8 ng/mL (≈ 25.4 nM). The 50% lethal concentration (LC50) with Artemia turned out to be 80 ng/mL (≈ 147 nM).

For the origin of these results see ChEMBL document CHEMBL1127239, “Novel cytotoxic annonaceous acetogenins: (2,4-cis and trans)-bulladecinones from annona bullata (annonaceae)” (Bioorg Med Chem Lett, 1994).
